In the NIST ThermoML archive (doi:10.1016/j.jct.2009.06.007):

Experiments:
[1] = 298.15 K, 101.33 kPa, Liquid
[2] = xn = mol fraction of the nth substance listed; details: 298.15 K, 101 kPa, Liquid; for viscosity: Capillary tube (Ostwald / Ubbelohde) method; for mass density: Vibrating tube method
[3] = refractive index (Na D-line) (dimensionless); xn = mol fraction of the nth substance listed; details: 298.15 K, 101 kPa, Liquid, Standard Abbe refractometry

CCCCCCCCn1cc[n+](C)c1.O=S(=O)([N-]S(=O)(=O)C(F)(F)F)C(F)(F)F
[1]
Details | mass density [kg/m3] | viscosity [mPa·s]
Capillary tube (Ostwald / Ubbelohde) method | – | 92.51
Pycnometric method | 1320.59 | –

CCCCCCCCn1cc[n+](C)c1.O=S(=O)([N-]S(=O)(=O)C(F)(F)F)C(F)(F)F + CO
Details | mass density, [2] [kg/m3] | refractive index, [3] | viscosity, [2] [mPa·s]
x2 = 0.0654 | 1316.5 | 1.43207 | 78.34
x2 = 0.0863 | 1315.1 | 1.43188 | 74.57
x2 = 0.2134 | 1305.18 | 1.42995 | 53.65
x2 = 0.3138 | 1295.08 | 1.42809 | 40.77
x2 = 0.3873 | 1285.91 | 1.42619 | 32.92
x2 = 0.5038 | 1267.04 | 1.42266 | 22.27
x2 = 0.6155 | 1240.79 | 1.41741 | 14.57
x2 = 0.7018 | 1210.98 | 1.41157 | 9.493
x2 = 0.805 | 1154.04 | 1.40017 | 4.919
x2 = 0.902 | 1052.54 | 1.38017 | 2.144

CCCCCCCCn1cc[n+](C)c1.O=S(=O)([N-]S(=O)(=O)C(F)(F)F)C(F)(F)F + COC(C)=O
Details | mass density, [2] [kg/m3] | refractive index, [3] | viscosity, [2] [mPa·s]
x2 = 0.0699 | 1314.77 | 1.4319 | 75.62
x2 = 0.1317 | 1308.87 | 1.43089 | 63.25
x2 = 0.1748 | 1304.45 | 1.43009 | 56.12
x2 = 0.2177 | 1299.57 | 1.42927 | 49.13
x2 = 0.3226 | 1285.83 | 1.42694 | 33.76
x2 = 0.4105 | 1271.88 | 1.42453 | 23.79
x2 = 0.5011 | 1253.68 | 1.42124 | 15.98
x2 = 0.6001 | 1228.33 | 1.41684 | 9.815
x2 = 0.6992 | 1193.95 | 1.41055 | 5.527
x2 = 0.7872 | 1151.29 | 1.40296 | 3.066
x2 = 0.8984 | 1067.39 | 1.387 | 1.206

COC(C)=O [methyl ethanoate] + CO
Details | mass density, [2] [kg/m3] | refractive index, [3] | viscosity, [2] [mPa·s]
x1 = 0.0939 | 810.62 | 1.3322 | 0.491
x1 = 0.1986 | 833.17 | 1.33757 | 0.452
x1 = 0.3009 | 851.78 | 1.34192 | 0.417
x1 = 0.4016 | 867.5 | 1.3456 | 0.393
x1 = 0.4943 | 880.02 | 1.34851 | 0.378
x1 = 0.5851 | 890.77 | 1.35095 | 0.369
x1 = 0.6941 | 902.17 | 1.35349 | 0.361
x1 = 0.7694 | 909.19 | 1.35503 | 0.358
x1 = 0.8875 | 918.93 | 1.35712 | 0.358
